Assay results from US20230190777A1, “MAMMALIAN MILK OLIGOSACCHARIDES PREVENT VIRAL INFECTION OF HUMAN EPITHELIUM” (The Regents of the University of California, priority 2020, published 2023).
Read-outs that look alike come from different tables or passages of the source.

Tests used:
Tulane virus = Tulane virus infection of MK2-LLC cells after HMO pre-incubation (imaging of adherent cells); type: cell-based, monkey; conditions: HMO 2 mg/ml pre-incubated 16 hours, MOI 0.001, compared to cells in the absence of an HMO (FIG. 1)
[1] = system: human coronavirus (HCoV-229E); assay: HCoV-229E infection of A549 cells after HMO pre-incubation (imaging of adherent cells); type: cell-based; conditions: HMO 2 mg/ml pre-incubated 16 hours, MOI 0.01, up to three days post-infection (FIG. 2)
Procedure: Monkey kidney epithelial (MK2-LLC) cells or human alveolar epithelial (A549) cells were seeded in 12-well plates at 1E5 cells per well.
24-hours post incubation, cells were washed with serum-free media and incubated with the particular HMO at 2 mg/ml final concentration.
16-hours post HMO incubation, the particular virus (for MK2-LLC cells this was Tulane virus, at a multiplicity of infection (MOI) of 0.001; for A549 cells this was human coronavirus (HCoV-229E), at an MOI of 0.01) was added and infection was allowed to proceed.
Images of adherent (live) cells were recorded two-days post infection after aspirating and washing cells with PBS. All wells were washed on Day 3 prior to imaging.
It was hypothesized that HMOs enhance cellular adhesion, cell structural integrity and modulate tight junction proteins as a generalized function regardless of the organ from which the epithelial cells are derived, and this function in turn alters the response to pathogenic challenges. […] As proof-of-concept, human alveolar epithelial (A549) cells were incubated in the presence of physiological levels of an HMO (2′-FL or 3′-SL) for 16 hours and infected the cells with a human coronavirus (HCoV-229E).

[2] = system: human coronavirus (HCoV-229E); type: cell-based; conditions: A549 cells, MOI 0.01, three days post infection (FIG. 3)
[3] = system: human coronavirus (HCoV-229E); type: cell-based; conditions: HMO 2 mg/ml or 5 mg/ml for 16 hours before HCoV-229E (MOI 0.01), 48 hours of viral infection (FIG. 4)
[4] = system: Type I (IFN-α1, IFN-β1) and Type III interferons (IFN-λ1, IFN-λ2, and IFN-λ3); assay: Host-cell interferon response during HCoV-229E infection of A549 cells (real-time PCR); type: cell-based, human; conditions: HMO 2 mg/ml pre-incubated 16 hours, MOI 0.01, 24 hours post infection (FIG. 6)
[5] = HMO 2 mg/ml added simultaneously with HCoV-229E ('During')
[6] = HMO 2 mg/ml added two hours post viral adsorption ('After')

Row | Compound | cellular adherence and cell viability in the presence of Tulane virus (Tulane virus) | A549 epithelial cell morphology after HCoV-229E infection [1] | loss of adherent cells, virus-mediated loss of cell viability and cytopathogenic effects [2, 5] | loss of adherent cells, virus-mediated loss of cell viability and cytopathogenic effects [2, 6] | A549 cell viability (live cell fluorescence, Calcein-AM) [3] | Type I and Type III interferon response (fold-induction) during HCoV-229E infection [4]
1 | 2′-Fucosyllactose [2′-FL] | increased cellular adherence and cell viability | little or no change in A549 epithelial cell morphology | reduced the loss of adherent cells, the virus-mediated loss of cell viability and the cytopathogenic effects | reduced the loss of adherent cells, the virus-mediated loss of cell viability and the cytopathogenic effects | retain viability | dramatically attenuated
2 | CC(=O)N[C@H]1[C@H]([C@H](O)[C@H](O)CO)O[C@@](O[C@H]2[C@@H](O)[C@@H](CO)O[C@@H](O[C@H]3[C@H](O)[C@@H](O)C(O)O[C@@H]3CO)[C@@H]2O)(C(=O)O)C[C@@H]1O (stereo partly shown) [3′-SL, 3′-sialyllactose] | increased cellular adherence and cell viability | little or no change in A549 epithelial cell morphology | reduced the loss of adherent cells, the virus-mediated loss of cell viability and the cytopathogenic effects | reduced the loss of adherent cells, the virus-mediated loss of cell viability and the cytopathogenic effects | retain viability | dramatically attenuated
3 | Lacto-N-fucopentaose I [LNFP I] | increased cellular adherence and cell viability | – | – | – | – | –
